# Results: US20060252807A1, “Novel ortho-terphenyl inhibitors of p38 kinase and methods of treating inflammatory disorders” (Kalypsys, Inc., priority 2005, published 2006)
# Target: T1, active p38 alpha enzyme (Upstate Biotechnology) (Homo sapiens, UniProt Q16539)
# T1 construct: purchased Upstate Biotechnology
# Experiment: p38α biochemical assay (ATP turnover, luminescent detection, Cambrex PKlight)
# Details: p38α kinase; Table 1 Biological Activity
# Summary of the method: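 Luminescent ATP-depletion readout measures total ATP turnover by p38α phosphorylating whole MapkapK2 protein. ATP 1.4 uM final; 30C, 2 h. Compounds delivered from DMSO.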
# T1 sequence (Q16539 whole entry): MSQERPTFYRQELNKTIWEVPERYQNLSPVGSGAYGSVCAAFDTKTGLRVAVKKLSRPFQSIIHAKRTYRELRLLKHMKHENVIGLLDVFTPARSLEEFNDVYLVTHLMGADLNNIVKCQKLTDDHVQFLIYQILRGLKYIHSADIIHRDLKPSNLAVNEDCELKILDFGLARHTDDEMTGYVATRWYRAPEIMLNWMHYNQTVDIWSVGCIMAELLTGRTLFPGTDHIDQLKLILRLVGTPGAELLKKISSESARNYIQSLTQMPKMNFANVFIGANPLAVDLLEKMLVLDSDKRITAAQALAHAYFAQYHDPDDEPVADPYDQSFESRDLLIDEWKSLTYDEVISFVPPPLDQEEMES
row,IC50,Structure (SMILES)
1,> 1 µM,CC(C)NC(=O)c1csc(-c2oc(CN3CCN(CCc4ccccc4)CC3)nc2-c2ccc(F)cc2)n1 [Example 1265]
2,> 1 µM,Cc1ccc(N2CCN(Cc3nc(-c4ccc(F)cc4)c(-c4nc(C(=O)NC(C)C)cs4)o3)CC2)cc1C [Example 1266]
3,> 1 µM,Cc1ccc(N2CCN(Cc3nc(-c4ccc(F)cc4)c(-c4nc(C(=O)NC(C)C)cs4)o3)CC2)c(C)c1 [Example 1267]
4,> 1 µM,Cc1ccc(C)c(N2CCN(Cc3nc(-c4ccc(F)cc4)c(-c4nc(C(=O)NC(C)C)cs4)o3)CC2)c1 [Example 1268]
5,> 1 µM,COc1ccc(N2CCN(Cc3nc(-c4ccc(F)cc4)c(-c4nc(C(=O)NC(C)C)cs4)o3)CC2)cc1 [Example 1269]
6,> 1 µM,COc1ccccc1N1CCN(Cc2nc(-c3ccc(F)cc3)c(-c3nc(C(=O)NC(C)C)cs3)o2)CC1 [Example 1270]
7,> 1 µM,COc1cccc(N2CCN(Cc3nc(-c4ccc(F)cc4)c(-c4nc(C(=O)NC(C)C)cs4)o3)CC2)c1 [Example 1271]
8,> 1 µM,COc1ccc(CCN(C)Cc2nc(-c3ccc(F)cc3)c(-c3nc(C(=O)NC(C)C)cs3)o2)cc1OC [Example 1272]
9,> 1 µM,CC(C)NC(=O)c1csc(-c2oc(CN3CCN(c4cccc(Cl)c4)CC3)nc2-c2ccc(F)cc2)n1 [Example 1273]
10,> 1 µM,CC(C)NC(=O)c1csc(-c2oc(CN3CCN(c4ccc(Cl)cc4)CC3)nc2-c2ccc(F)cc2)n1 [Example 1274]
11,> 1 µM,CC(C)NC(=O)c1csc(-c2oc(CN3CCN(c4ccc(F)cc4F)CC3)nc2-c2ccc(F)cc2)n1 [Example 1276]
12,> 1 µM,CC(C)NC(=O)c1csc(-c2oc(CN(Cc3cccnc3)Cc3cccnc3)nc2-c2ccc(F)cc2)n1 [Example 1277]
13,> 1 µM,CC(C)NC(=O)c1csc(-c2oc(CN3CCN(CCN4CCOCC4)CC3)nc2-c2ccc(F)cc2)n1 [Example 1278]
14,> 1 µM,CC(C)NC(=O)c1csc(-c2oc(CN3CCC(N(C)C(=O)OC(C)(C)C)C3)nc2-c2ccc(F)cc2)n1 (stereo not shown) [Example 1279]
15,> 1 µM,CC(=O)c1ccc(N2CCN(Cc3nc(-c4ccc(F)cc4)c(-c4nc(C(=O)NC(C)C)cs4)o3)CC2)cc1 [Example 1280]
16,> 1 µM,CCN(CC)CCN(Cc1ccccc1)Cc1nc(-c2ccc(F)cc2)c(-c2nc(C(=O)NC(C)C)cs2)o1 [Example 1281]
17,> 1 µM,CC(C)NC(=O)c1csc(-c2oc(CN3CCN(c4ccc([N+](=O)[O-])cc4)CC3)nc2-c2ccc(F)cc2)n1 [Example 1282]
18,> 1 µM,CC(C)NC(=O)c1csc(-c2oc(CN(C)Cc3cccc4ccccc34)nc2-c2ccc(F)cc2)n1 [Example 1283]
19,> 1 µM,Cc1ccc(Cl)cc1N1CCN(Cc2nc(-c3ccc(F)cc3)c(-c3nc(C(=O)NC(C)C)cs3)o2)CC1 [Example 1284]
20,> 1 µM,COc1cc(CN(C)Cc2nc(-c3ccc(F)cc3)c(-c3nc(C(=O)NC(C)C)cs3)o2)cc(OC)c1OC [Example 1285]
21,> 1 µM,CC(C)NC(=O)c1csc(-c2oc(CN(CCc3ccccc3)Cc3ccccc3)nc2-c2ccc(F)cc2)n1 [Example 1286]
22,> 1 µM,CC(C)NC(=O)c1csc(-c2oc(CN(C)C(Cc3ccccc3)c3ccccc3)nc2-c2ccc(F)cc2)n1 (stereo not shown) [Example 1288]
23,> 1 µM,CC(C)NC(=O)c1csc(-c2oc(CN3CCC(O)(c4ccc(Cl)cc4)CC3)nc2-c2ccc(F)cc2)n1 [Example 1289]
24,> 1 µM,C#CCN(Cc1nc(-c2ccc(F)cc2)c(-c2nc(C(=O)NC(C)C)cs2)o1)Cc1ccc(Cl)cc1Cl [Example 1290]

row,IC50,Structure (SMILES)
1,> 1 µM,CCN(Cc1nc(-c2ccc(F)cc2)c(-c2nc(C(=O)NC(C)C)cs2)o1)C(Cc1ccccc1)c1ccco1 (stereo not shown) [Example 1291]
2,> 1 µM,CC(C)NC(=O)c1csc(-c2oc(CN3CCN(C(=O)OC(C)(C)C)C[C@H]3CO)nc2-c2ccc(F)cc2)n1 [Example 1292]
3,> 1 µM,CC(C)NC(=O)c1csc(-c2oc(CN3CCN(c4ccc(C(C)(C)C)cc4)CC3)nc2-c2ccc(F)cc2)n1 [Example 1293]
4,> 1 µM,CC(C)NC(=O)c1csc(-c2oc(CN3CCN(Cc4ccc5c(c4)OCO5)CC3)nc2-c2ccc(F)cc2)n1 [Example 1294]
5,> 1 µM,COc1cc2c(cc1OC)CN(Cc1nc(-c3ccc(F)cc3)c(-c3nc(C(=O)NC(C)C)cs3)o1)CC2 [Example 1295]
6,> 1 µM,CC(C)NC(=O)c1csc(-c2oc(CN3CCN(c4ccc(C(F)(F)F)cc4)CC3)nc2-c2ccc(F)cc2)n1 [Example 1296]
7,> 1 µM,CC(C)NC(=O)c1csc(-c2oc(CN3CCN(c4cccc(C(F)(F)F)c4)CC3)nc2-c2ccc(F)cc2)n1 [Example 1297]
8,> 1 µM,CC(C)NC(=O)c1csc(-c2oc(CN3CCN(c4ccc(Cl)c(Cl)c4)CC3)nc2-c2ccc(F)cc2)n1 [Example 1298]
9,> 1 µM,CC(C)NC(=O)c1csc(-c2oc(CN3CCN(c4ccc(C(F)(F)F)cn4)CC3)nc2-c2ccc(F)cc2)n1 [Example 1300]
10,> 1 µM,CC(C)NC(=O)c1csc(-c2oc(CN3CCN(c4ccccc4Cl)CC3)nc2-c2ccc(F)cc2)n1 [Example 1301]
11,> 1 µM,COc1ccc(N2CCN(Cc3nc(-c4ccc(F)cc4)c(-c4nc(C(=O)NC(C)C)cs4)o3)CC2)cc1OC [Example 1302]
12,> 1 µM,CC(C)NC(=O)c1csc(-c2oc(CN3CCCC(c4ccc(C(F)(F)F)cc4)C3)nc2-c2ccc(F)cc2)n1 (stereo not shown) [Example 1303]
13,> 1 µM,CC(C)NC(=O)c1csc(-c2oc(CNC3CCCc4ccccc43)nc2-c2ccc(F)cc2)n1 (stereo not shown) [Example 1304]
14,> 1 µM,CC(C)NC(=O)c1csc(-c2oc(CNc3ccccc3)nc2-c2ccc(F)cc2)n1 [Example 1307]
15,> 1 µM,Cc1cccc(NCc2nc(-c3ccc(F)cc3)c(-c3nc(C(=O)NC(C)C)cs3)o2)c1 [Example 1308]
16,> 1 µM,Cc1ccc(NCc2nc(-c3ccc(F)cc3)c(-c3nc(C(=O)NC(C)C)cs3)o2)cc1 [Example 1309]
17,> 1 µM,Cc1ccccc1NCc1nc(-c2ccc(F)cc2)c(-c2nc(C(=O)NC(C)C)cs2)o1 [Example 1310]
18,> 1 µM,Cc1ccc(NCc2nc(-c3ccc(F)cc3)c(-c3nc(C(=O)NC(C)C)cs3)o2)nc1 [Example 1311]
19,> 1 µM,Cc1cccc(NCc2nc(-c3ccc(F)cc3)c(-c3nc(C(=O)NC(C)C)cs3)o2)n1 [Example 1312]
20,> 1 µM,Cc1ccnc(NCc2nc(-c3ccc(F)cc3)c(-c3nc(C(=O)NC(C)C)cs3)o2)c1 [Example 1313]
21,> 1 µM,Cc1cccnc1NCc1nc(-c2ccc(F)cc2)c(-c2nc(C(=O)NC(C)C)cs2)o1 [Example 1314]
22,> 1 µM,CC(C)NC(=O)c1csc(-c2oc(CNc3ccccc3F)nc2-c2ccc(F)cc2)n1 [Example 1315]
23,> 1 µM,CC(C)NC(=O)c1csc(-c2oc(CNc3ccc(F)cc3)nc2-c2ccc(F)cc2)n1 [Example 1316]
24,> 1 µM,Cc1ccc(C)c(NCc2nc(-c3ccc(F)cc3)c(-c3nc(C(=O)NC(C)C)cs3)o2)c1 [Example 1317]

row,IC50,Structure (SMILES)
1,> 1 µM,Cc1ccc(NCc2nc(-c3ccc(F)cc3)c(-c3nc(C(=O)NC(C)C)cs3)o2)cc1C [Example 1318]
2,> 1 µM,CCc1ccccc1NCc1nc(-c2ccc(F)cc2)c(-c2nc(C(=O)NC(C)C)cs2)o1 [Example 1319]
3,> 1 µM,Cc1cccc(NCc2nc(-c3ccc(F)cc3)c(-c3nc(C(=O)NC(C)C)cs3)o2)c1C [Example 1321]
4,> 1 µM,Cc1ccc(NCc2nc(-c3ccc(F)cc3)c(-c3nc(C(=O)NC(C)C)cs3)o2)c(C)c1 [Example 1322]
5,> 1 µM,Cc1cc(C)cc(NCc2nc(-c3ccc(F)cc3)c(-c3nc(C(=O)NC(C)C)cs3)o2)c1 [Example 1323]
6,> 1 µM,COc1cccc(NCc2nc(-c3ccc(F)cc3)c(-c3nc(C(=O)NC(C)C)cs3)o2)c1 [Example 1324]
7,> 1 µM,COc1ccc(NCc2nc(-c3ccc(F)cc3)c(-c3nc(C(=O)NC(C)C)cs3)o2)cc1 [Example 1325]
8,> 1 µM,COc1ccccc1NCc1nc(-c2ccc(F)cc2)c(-c2nc(C(=O)NC(C)C)cs2)o1 [Example 1326]
9,> 1 µM,COc1ccncc1NCc1nc(-c2ccc(F)cc2)c(-c2nc(C(=O)NC(C)C)cs2)o1 [Example 1327]
10,> 1 µM,Cc1ccc(NCc2nc(-c3ccc(F)cc3)c(-c3nc(C(=O)NC(C)C)cs3)o2)cc1F [Example 1328]
11,> 1 µM,Cc1c(F)cccc1NCc1nc(-c2ccc(F)cc2)c(-c2nc(C(=O)NC(C)C)cs2)o1 [Example 1329]
12,> 1 µM,CC(C)NC(=O)c1csc(-c2oc(CNc3cc(F)cc(F)c3)nc2-c2ccc(F)cc2)n1 [Example 1330]
13,> 1 µM,CC(C)NC(=O)c1csc(-c2oc(CNc3ccc(F)cc3F)nc2-c2ccc(F)cc2)n1 [Example 1331]
14,> 1 µM,CC(C)NC(=O)c1csc(-c2oc(CNc3ccc4c(c3)CCC4)nc2-c2ccc(F)cc2)n1 [Example 1333]
15,> 1 µM,CC(C)NC(=O)c1csc(-c2oc(CNc3ccccc3C(C)C)nc2-c2ccc(F)cc2)n1 [Example 1334]
16,> 1 µM,CC(=O)c1cccc(NCc2nc(-c3ccc(F)cc3)c(-c3nc(C(=O)NC(C)C)cs3)o2)c1 [Example 1335]
17,> 1 µM,CC(=O)c1ccc(NCc2nc(-c3ccc(F)cc3)c(-c3nc(C(=O)NC(C)C)cs3)o2)cc1 [Example 1336]
18,> 1 µM,CCc1cccc(C)c1NCc1nc(-c2ccc(F)cc2)c(-c2nc(C(=O)NC(C)C)cs2)o1 [Example 1337]
19,> 1 µM,Cc1cc(C)c(NCc2nc(-c3ccc(F)cc3)c(-c3nc(C(=O)NC(C)C)cs3)o2)c(C)c1 [Example 1338]
20,> 1 µM,CC(C)NC(=O)c1csc(-c2oc(CNc3ccc4c(c3)OCO4)nc2-c2ccc(F)cc2)n1 [Example 1339]
21,> 1 µM,COc1ccc(NCc2nc(-c3ccc(F)cc3)c(-c3nc(C(=O)NC(C)C)cs3)o2)c(C)c1 [Example 1340]
22,> 1 µM,CCOc1cccc(NCc2nc(-c3ccc(F)cc3)c(-c3nc(C(=O)NC(C)C)cs3)o2)c1 [Example 1341]
